Source: patent publication US20220133694A1, “PHARMACEUTICAL USE” (Novartis AG, priority 2015, published 2022)

Test system: heart failure patients (NYHA class II-IV) with reduced ejection fraction
Details: randomized patients
Experimental: Patients enrolled were stratified based on the pre-study level of RAAS inhibition (high/low).
Patients were stratified based on the level of RAAS inhibition as follows: • High RAAS stratum: Patients receiving >160 mg of valsartan or >10 mg total daily dose of enalapril, or equivalent doses of other ARBs/ACEls, respectively, at screening • Low RAAS stratum: Patients receiving ≤160 mg of valsartan or ≤10 mg total daily dose of enalapril, or equivalent doses of other ARBs/ACEls, respectively, at screening. This stratum also included patients who were not on an ACEI or an ARB 4 weeks prior to screening (i.e., ACEI/ARB-naive patients)
Patients who met all the entry criteria and completed the ACEI-free washout period (if required) attended Visit 2 within approximately one week after Visit 1. […] Eligible hospitalized patients also took the study medication while they were still in the hospital and before they were discharged. Patients took the study medication in addition to their background HF therapy, except for ACEIs and ARBs, which were replaced by the study medication.

trisodium [3-((1S,3R)-1-biphenyl-4-ylmethyl-3-ethoxycarbonyl-1-butylcarbamoyl) propionate-(S)-3′-methyl-2′-(pentanoyl{2″-(tetrazol-5-ylate)biphenyl-4′-ylmethyl}amino)butyrate]hemipentahydrate [LCZ696]
most common reasons for dose adjustment/interruption or permanent discontinuation (AEs): hypotension, renal dysfunction or hyperkalemia
